Among the data in the METLIN SMRT retention time set (Domingo-Almenara et al. 2019) are RP-LC retention time values, retold here.

SMILES strings stand for the structures.

A short description of this data set: gradient 5% acetonitrile 3 min, to 50% in 2 min, to 85% in 15 min, held 3 min, 100 µL/min. The settings on record: column: Zorbax Extend-C18 2.1 x 50 mm; eluents: water / acetonitrile, 0.1% formic acid. An outline of the steps:
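Pure standards were run in mixtures of ~100 molecules by HPLC coupled to a quadrupole time-of-flight mass spectrometer. The column was a Zorbax Extend-C18 (2.1 × 50 mm, 1.8 μm) at 100 μL/min, with water and acetonitrile each containing 0.1% formic acid, in positive and negative ionization mode. Dead and dwell volumes were 40 μL and 900 μL. Retention time was taken from computationally picked adduct peaks, each manually inspected, with data collected over 3 months.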
On to `COc1ccccc1-c1noc(CCn2nc(-c3ccc(F)cc3)ccc2=O)n1`, for which the RP-LC retention time amounted to 863 s. The result for `CCOC(=O)C1=C(C)NC2=C(C(=O)C(C(=O)OC)C(C)C2)C1c1ccc(F)cc1` (stereo not given) reads 870 s; that for `CC1CCCCC1Nc1nc(-c2ccc([N+](=O)[O-])cc2)nc2ccccc12` (stereo not given), 950 s; that for `CCCS(=O)(=O)NCCNc1cc(-n2nc(C)cc2C)ncn1`, 679 s. On to `COc1ccc(C2(C)NC(=O)N(CC(=O)Nc3ccc([N+](=O)[O-])cc3)C2=O)cc1` (stereo not given), for which the RP-LC retention time turned out to be 727 s. As for `CCn1cc(CCNC(C)=O)c2cccnc21`, the RP-LC retention time was determined as 561 s. `Cc1ccc(Cl)cc1NC(=O)C(C)n1cnc2nc3c(cc2c1=O)CCCC3` (stereo not given) displayed an RP-LC retention time of 809 s. For `Nc1nc(Nc2ccccc2Cl)nc2ccccc12`, the RP-LC retention time is 615 s. With `Cc1ccc(N(Cc2nc3nc(C)c(Cl)c(C)n3n2)C(=O)c2ccco2)cc1`, the RP-LC retention time came to 887 s. As to `O=C(NC1CCS(=O)(=O)C1)C1CCN(c2cnn(Cc3ccccc3)c(=O)c2)C1` (stereo not given), the RP-LC retention time came to 662 s.

Compound `Cn1cc(C(CNC(=O)Nc2ccccc2)c2cccnc2)c2ccccc21` (stereo not given) had an RP-LC retention time of 680 s. The result for `COc1ccc(-c2csc(Nc3ccc(S(=O)(=O)Nc4nc(C)cc(C)n4)cc3)n2)cc1C` reads 966 s. The result for `Cc1nc(C)c(C(=O)N2CCC(N3C(=O)C4(CCCC4)C3c3scnc3C)CC2)s1` (stereo not given) reads 684 s; that for `CCOc1ccc(N2C(=O)C3N=NN(Cc4nc(-c5cccc(C)c5)no4)C3C2=O)cc1` (stereo not given), 1040 s; that for `c1ccc(Sc2ncccn2)nc1`, 662 s. On to `CC1=NS(=O)(=O)N(C)C=C1C(=O)OCc1cccc(C)c1`, for which the RP-LC retention time was 967 s.

The compound `CCCn1c(C)c(C)c(S(=O)(=O)c2ccc(OC)cc2)c1NC(=O)C1CCCO1` (stereo not given) came in with an RP-LC retention time of 898 s. `Cn1cnnc1SCC(=O)N1CCCCCC1` displayed an RP-LC retention time of 581 s. In the case of `COc1cccc(Cn2cccc(S(=O)(=O)N3CCCCCC3)c2=O)c1`, the RP-LC retention time is 935 s. Compound `Cc1cc(C2CCCN2C(=O)NC(C)(C)C)no1` (stereo not given) gave an RP-LC retention time of 752 s.

`CCOc1ccc(CNC(=O)Cn2ccc3ccc(N4CCOCC4)nc32)cc1` returned an RP-LC retention time of 894 s. Consider `CC(C)CN(Cc1cccnc1)C1CN(C(=O)NCc2ccccc2)C1`, for which the RP-LC retention time is 627 s.

Compound `O=C(c1ccsc1)N1CCC2(CCC2N2CCOCC2)CC1` (stereo not given) had an RP-LC retention time of 581 s. `O=C(CN1CCOCC1)N1CCCCC1c1nc(C2CC2)no1` (stereo not given) gave an RP-LC retention time of 590 s.

Regarding `CCNC(=O)c1cc2cc(C)ccc2[nH]1`, the RP-LC retention time was 791 s.

The compound `CCCCCOc1ccc(Nc2nc(C(=O)OCC)nc3ccccc23)cc1` registered an RP-LC retention time of 789 s. The figure for `Cc1ccc(S(=O)(=O)N2CC(F)(F)C[C@H]2CN2CCc3ccccc3C2)c(C)c1` is 816 s; for `Cc1ccc(CNC(=O)CNS(=O)(=O)c2cc(-c3noc(C)n3)sc2C)cc1` it is 847 s. In turn, `CCn1c(CCNC(=O)c2ccc(F)cc2F)nc2cccnc21` displayed an RP-LC retention time of 641 s.

In the case of `CNC(=O)c1cc(C)nc2c(C)cccc12`, the RP-LC retention time worked out at 570 s. `Cc1ccc(-c2cn3c(CC(=O)N4CCCc5ccccc54)csc3n2)cc1C` returned an RP-LC retention time of 956 s. `O=C(CSc1ccc(-n2cnc(-c3ccccc3)c2)nn1)Nc1ccc(F)cc1F` displayed an RP-LC retention time of 816 s. With `CCOCC(=O)N1C[C@@H]2CCCN3CCC[C@@H]([C@H]23)[C@H]1CCCC(=O)NCC1CC1`, the RP-LC retention time worked out at 574 s.

As to `CCc1nnc(-c2cccc(OCC(=O)N3CCCc4ccccc43)c2)o1`, the RP-LC retention time is 814 s. In turn, `CCC(=O)N1CCc2cc(N3CC(C(=O)NC4CCCCC4)CC3=O)ccc21` (stereo not given) came in with an RP-LC retention time of 728 s.

Regarding `O=C(NCCc1ccccn1)C1CCN(c2cnn(Cc3ccccc3)c(=O)c2)CC1`, the RP-LC retention time was 594 s. `Brc1ccc(OCc2nc3c4ccccc4ncn3n2)cc1` yielded an RP-LC retention time of 981 s. In the case of `COc1ccc(-c2noc(Cc3nc(-c4ccc(Cl)cc4)cs3)n2)cc1`, the RP-LC retention time was 1270 s. `Cc1ccc2c(c1)N(C(=O)Cn1cnc(-c3nc(-c4ccccc4)cs3)c1)CCO2` yielded an RP-LC retention time of 954 s.

Compound `COc1ccc(CNC(=O)C2CCCN(c3cnc4nc(C)c(C)nc4c3)C2)cc1` (stereo not given) came in with an RP-LC retention time of 710 s.

`COCCCNC(=O)c1ccc(-n2nc(C)c3c2CC(C)(C)CC3=O)cc1`: the RP-LC retention time came to 711 s. The compound `COc1ccc(NC(=O)C2CCN(C(=O)C3Sc4ccccc4NC3=O)CC2)c(OC)c1` (stereo not given) yielded an RP-LC retention time of 754 s.

`O=C(NC1CC1)c1ccc(OCC2CCCN2C(=O)c2cc(F)ccc2F)cc1` (stereo not given) displayed an RP-LC retention time of 785 s. The figure for `COc1cccc(COC(=O)C2=CN(Cc3ccccc3)S(=O)(=O)N=C2C)c1` is 1090 s; for `O=C(c1ccc(Br)o1)N1CCN(c2ccc(=O)n(-c3cccc(Cl)c3)n2)CC1` it is 878 s; for `CC1(C)Cc2cccc(OCC(=O)NCc3n[nH]c(=O)c4ccccc34)c2O1` it is 661 s. The figure for `Brc1ccccc1-c1nn2c(-c3ccccn3)nnc2s1` is 836 s; for `COCCNc1c(-c2cccc(F)c2)nc2sc(C(=O)NC(C)C)c(C)n12` it is 835 s. As for `CCOCCCNC(=O)C1CCCN(C(=O)c2[nH]c(C)cc2C)C1` (stereo not given), the RP-LC retention time came out at 678 s. Turning to `COC(=O)CNC(=O)NCCn1c(-c2ccccc2)nc2cccnc21`, the RP-LC retention time turned out to be 591 s. For `Nc1nc(N)nc(-c2cc(Cl)ccc2Cl)n1`, the RP-LC retention time was determined as 714 s.

On to `CCOC(=O)CC1(NC(=O)N2CCCn3nc(-c4ccncc4)cc3C2)CCCCC1`, for which the RP-LC retention time was 595 s.

`CN1C(=O)C2CCCCN2c2ccc(C(=O)N3CCN(Cc4ccc5c(c4)OCO5)CC3)cc21` (stereo not given) came in with an RP-LC retention time of 638 s. The result for `COC(=O)c1c(C)[nH]c(C(=O)N2CCCC(C(=O)N3CCC(C)CC3)C2)c1C` (stereo not given) reads 758 s; that for `CC(=O)c1ccc(N2CCN(C(=O)CN3C(=S)NC(C)(C)CC3C)CC2)cc1` (stereo not given), 716 s. `CC(C)CCNC(=O)C1(C)CN(S(=O)(=O)c2ccccc2)CC(=O)N1CCCc1ccccc1` (stereo not given) yielded an RP-LC retention time of 1050 s. In turn, `Cn1cccc1-c1noc(C2CCN(S(=O)(=O)c3ccc4c(c3)OCCO4)CC2)n1` gave an RP-LC retention time of 1000 s.

Compound `CCn1c(=O)oc2cc(-c3noc(-c4ccc(C(F)(F)F)cc4)n3)ccc21` gave an RP-LC retention time of 1220 s. Compound `CN1C(=O)c2cc(C(=O)NCCCN3CCCC3)nn2CC1(C)C(=O)NCc1ccc(F)cc1` (stereo not given) showed an RP-LC retention time of 585 s. The figure for `CC(C)CCNC(=O)C1(C)Cn2nc(C(=O)NCc3ccccc3Br)cc2C(=O)N1C` (stereo not given) is 838 s; for `CCN(CC)c1ccc(C(=O)O)cc1NC(=O)c1cccs1` it is 835 s. Consider `Cc1ccc(Nc2cc(C)nc(N3CCN(C(=O)Nc4ccccc4)CC3)n2)cc1`, for which the RP-LC retention time came out at 738 s. `CCOc1ccc(N2C=C(C(=O)OC)S(=O)(=O)c3ccccc32)cc1` came in with an RP-LC retention time of 887 s. For `CCc1ccc(NC(=O)C2CC(=O)N(CCc3c[nH]c4ccc(F)cc34)C2)cc1` (stereo not given), the RP-LC retention time was 873 s. Compound `CN(C)c1ncnc2c1ncn2-c1ccccc1` displayed an RP-LC retention time of 714 s. The compound `CCOc1ccc(-c2csc(Cc3nc(-c4ccccc4C)no3)n2)cc1` displayed an RP-LC retention time of 1310 s.

Compound `CCN(CC)C(=O)CSc1nnc(-c2ccc3c(c2)OCCCO3)n1C(C)C` registered an RP-LC retention time of 770 s. As to `O=C(Cn1c(=O)sc2ccccc21)Nc1nc(-c2ccc(Br)cc2)cs1`, the RP-LC retention time worked out at 1070 s. Compound `CC(C)NC(=O)C1CCN(S(C)(=O)=O)c2cc(Cl)ccc2O1` (stereo not given) registered an RP-LC retention time of 777 s. `O=C(CN1CCN(Cc2ccc(F)cc2Cl)C1=O)N1CCN(C2CCCCC2)CC1` yielded an RP-LC retention time of 644 s.

With `CCn1c(=O)c2ccccc2n(CC(=O)N2CCC(C(N)=O)CC2)c1=O`, the RP-LC retention time came to 601 s.

As to `Cc1ncccc1C(=O)N1[C@H]2CC[C@@H]1c1cnc(-c3ccc(F)cc3)nc1C2`, the RP-LC retention time is 705 s.

In the case of `COc1cccc(CNC(=O)Nc2cccc(-c3ccc(N4CCCCC4)nn3)c2)c1`, the RP-LC retention time turned out to be 702 s. For the compound `CC(C)N1CCC2(CC1)N=C(c1ccc(Br)cc1)CC(c1cc(Cl)ccc1O)N2` (stereo not given), the RP-LC retention time stood at 711 s. The figure for `CC1CCN(S(=O)(=O)c2cccc(-c3nnc(-c4ccc(Cl)cc4)o3)c2)CC1` is 1250 s. The figure for `CCOc1ccccc1-c1noc(Cn2c(=O)n(CC)c(=O)c3ccccc32)n1` is 983 s; for `CN1C(=O)c2[nH]nc(-c3ccc(F)cc3)c2C1c1cccc(O)c1` (stereo not given) it is 687 s. The result for `COc1cccc2nnc(NC(=O)CCC(=O)NCC(C)C)n12` reads 587 s. The compound `Cc1cc(OCC(=O)NCc2ccccc2Br)nc(N2CCN(c3ccccc3)CC2)n1` showed an RP-LC retention time of 871 s. Compound `CC(C)Cc1ccc(S(=O)(=O)N2C[C@@H](F)C[C@H]2C(=O)N2CCc3ccccc3C2)cc1` came in with an RP-LC retention time of 1120 s.
